Results: PubChem BioAssay (NCI)
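Dose response: 5 concentrations. Exposure: 48 h. Format: 96-well plates. Endpoint: linear interpolation; highest concentration if not reached. Definition used: TGI = concentration required for complete inhibition of growth.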 Where a SMILES comes first, the peptide text is derived from it. The star is where a group is joined. Boc = CC(C)(C)OC(=O)*; OSu = O=C1CCC(=O)N1O*

Columns and labels:
Test in all cases: NCI-60 cell line screen, 48 h
[1] = system: ACHN renal
[2] = system: CAKI-1 renal
[3] = system: DU-145 prostate
[4] = system: HOP-62 NSCLC
[5] = system: M14 melanoma
[6] = system: NCI/ADR-RES ovarian
[7] = system: SF-268 CNS
[8] = system: SK-MEL-2 melanoma
[9] = system: SN12C renal
[10] = system: SNB-19 CNS

O=S(=O)(O)c1cc(O)c2c(N=Cc3ccccc3O)cc(S(=O)(=O)O)cc2c1
TGI [1]: > 100 µM
TGI [2]: > 100 µM
TGI [3]: > 100 µM
TGI [4]: > 100 µM
TGI [5]: > 100 µM
TGI [6]: > 100 µM
TGI [7]: > 100 µM
TGI [8]: > 100 µM
TGI [9]: > 100 µM
TGI [10]: > 100 µM

CCCSc1ccc2[nH]c(N3C(=O)/C(=C/c4ccco4)N=C3c3ccccc3)cc2c1
TGI [1]: > 50 µM
TGI [2]: > 50 µM
TGI [3]: > 50 µM
TGI [4]: > 50 µM
TGI [5]: > 50 µM
TGI [6]: > 50 µM
TGI [7]: > 50 µM
TGI [8]: 24.4 µM
TGI [9]: > 50 µM
TGI [10]: > 50 µM

COc1ccc2c(CCN)c(C(=O)O)[nH]c2c1
TGI [1]: > 100 µM
TGI [2]: > 100 µM
TGI [3]: > 100 µM
TGI [4]: > 100 µM
TGI [5]: > 100 µM
TGI [6]: > 100 µM
TGI [7]: > 100 µM
TGI [8]: > 100 µM
TGI [9]: > 100 µM
TGI [10]: > 100 µM

CC(NC(=O)C(NC(=O)OC(C)(C)C)C(C)C)C(=O)NCC(=O)ON1C(=O)CCC1=O (stereo not drawn) (Boc-Val-Ala-Gly-OSu; configuration not given here)
TGI [1]: > 100 µM
TGI [2]: > 100 µM
TGI [3]: > 100 µM
TGI [4]: > 100 µM
TGI [5]: > 100 µM
TGI [6]: > 100 µM
TGI [7]: > 100 µM
TGI [8]: > 100 µM
TGI [9]: > 100 µM
TGI [10]: > 100 µM

C[C@H](CCC(=O)NCCS(=O)(=O)O)[C@H]1CC[C@H]2[C@@H]3CC[C@@H]4C[C@H](O)CC[C@]4(C)[C@H]3CC[C@]12C
TGI [1]: > 100 µM
TGI [2]: > 100 µM
TGI [3]: > 100 µM
TGI [4]: > 100 µM
TGI [5]: > 100 µM
TGI [6]: > 100 µM
TGI [7]: > 100 µM
TGI [8]: > 100 µM
TGI [9]: > 100 µM
TGI [10]: > 100 µM

O=S(=O)(c1ccccc1)n1c2ccc(Br)cc2c2nc3ccccc3nc21
TGI [1]: > 100 µM
TGI [2]: > 100 µM
TGI [3]: > 100 µM
TGI [4]: > 100 µM
TGI [5]: > 100 µM
TGI [6]: > 100 µM
TGI [7]: > 100 µM
TGI [8]: > 100 µM
TGI [9]: > 100 µM
TGI [10]: > 100 µM

N#CCc1n[nH]c(Cc2ccccc2)n1
TGI [1]: > 100 µM
TGI [2]: > 100 µM
TGI [3]: > 100 µM
TGI [4]: > 100 µM
TGI [5]: > 100 µM
TGI [6]: > 100 µM
TGI [7]: > 100 µM
TGI [8]: > 100 µM
TGI [9]: > 100 µM
TGI [10]: > 100 µM

Cc1ccsc1/C=N/Nc1nc2ccccc2s1
TGI [1]: 30.8 µM
TGI [2]: 36.1 µM
TGI [3]: > 100 µM
TGI [4]: 22.4 µM
TGI [5]: > 100 µM
TGI [6]: 77.4 µM
TGI [7]: 66.7 µM
TGI [8]: 75.3 µM
TGI [9]: 41.3 µM
TGI [10]: 26.9 µM

Oc1ccc(-c2nc(-c3cccnc3)c(-c3ccc(Cl)cc3)[nH]2)cc1O
TGI [1]: 26.1 µM
TGI [2]: 46.7 µM
TGI [3]: 90.8 µM
TGI [4]: 25.3 µM
TGI [5]: 26.4 µM
TGI [6]: 32.5 µM
TGI [7]: 39.7 µM
TGI [8]: 31.8 µM
TGI [9]: 31.3 µM
TGI [10]: 27.1 µM

COC(=O)c1c(O)ccc2c1c1c(n2Cc2ccccc2Cl)C(=O)c2ccccc2C1=O
TGI [1]: 36.7 µM
TGI [2]: 27.4 µM
TGI [3]: 29 µM
TGI [4]: 47.9 µM
TGI [5]: 34 µM
TGI [6]: 39.3 µM
TGI [7]: 29.4 µM
TGI [8]: 33.8 µM
TGI [9]: 23.2 µM
TGI [10]: 33.7 µM

CC(C)/C(Cl)=N\OC(=O)Nc1ccccc1F
TGI [1]: 24.9 µM
TGI [2]: 38.3 µM
TGI [3]: 30 µM
TGI [4]: > 55.6 µM
TGI [5]: 13.3 µM
TGI [6]: 30.7 µM
TGI [7]: 41.9 µM
TGI [8]: 33.2 µM
TGI [9]: 26.8 µM
TGI [10]: > 57.3 µM

CCCCC(C#N)(OP1(=O)OC(c2ccccc2)C(C)N1C)c1ccccc1 (stereo not given)
TGI [1]: 37.5 µM
TGI [2]: 42.5 µM
TGI [3]: 43.4 µM
TGI [4]: 38.7 µM
TGI [5]: 38.3 µM
TGI [6]: 52 µM
TGI [7]: 35.9 µM
TGI [8]: 34.2 µM
TGI [9]: 31.3 µM
TGI [10]: 36.4 µM

Cc1nc(C)c(C(=O)NNC(N)=S)cc1C(=O)NNC(N)=S
TGI [1]: > 100 µM
TGI [2]: > 100 µM
TGI [3]: > 100 µM
TGI [4]: > 100 µM
TGI [5]: > 100 µM
TGI [6]: > 100 µM
TGI [7]: > 100 µM
TGI [8]: > 100 µM
TGI [9]: > 100 µM
TGI [10]: > 100 µM

Cc1[nH]c2c(c1C)S(=O)(=O)c1cc3ccccc3nc1N2
TGI [1]: > 100 µM
TGI [2]: > 100 µM
TGI [3]: > 100 µM
TGI [4]: 39.8 µM
TGI [5]: 62.5 µM
TGI [6]: > 100 µM
TGI [7]: > 100 µM
TGI [8]: > 100 µM
TGI [9]: 36.9 µM
TGI [10]: 70.6 µM

CCN(CC)CC1CCCCN1CC(=O)N1c2ccccc2NC(=O)CC1C (stereo not given)
TGI [1]: > 100 µM
TGI [2]: > 100 µM
TGI [3]: > 100 µM
TGI [4]: > 100 µM
TGI [5]: > 100 µM
TGI [6]: > 100 µM
TGI [7]: > 100 µM
TGI [8]: > 100 µM
TGI [9]: > 100 µM
TGI [10]: > 100 µM

BrCCCCCOc1ccc(-c2c3ccccc3c(-c3ccc(OCCCCCBr)cc3)c3ccccc23)cc1
TGI [1]: > 100 µM
TGI [2]: > 100 µM
TGI [3]: > 100 µM
TGI [4]: > 100 µM
TGI [5]: > 100 µM
TGI [6]: > 100 µM
TGI [7]: > 100 µM
TGI [8]: > 100 µM
TGI [9]: > 100 µM
TGI [10]: > 100 µM

O=C(c1ccco1)N1CCCN(C(=O)c2ccco2)C1=S
TGI [1]: > 100 µM
TGI [2]: > 100 µM
TGI [3]: > 100 µM
TGI [4]: > 100 µM
TGI [5]: > 100 µM
TGI [6]: > 100 µM
TGI [7]: > 100 µM
TGI [8]: > 100 µM
TGI [9]: > 100 µM
TGI [10]: > 100 µM

COC(=O)[C@]1(c2cc3ccccc3n2S(=O)(=O)c2ccccc2)CC2CN(C(C)=O)C1CC2=O (stereo not given in full)
TGI [1]: 3.97 µM
TGI [2]: 7.79 µM
TGI [3]: 11.7 µM
TGI [4]: 16.4 µM
TGI [5]: 4.63 µM
TGI [6]: > 40.4 µM
TGI [7]: 5.83 µM
TGI [8]: 7.52 µM
TGI [9]: 8.11 µM
TGI [10]: 12.5 µM

COC(=O)NCCc1[nH]nc2c1C(=O)C=C(N1CCOCC1)C2=O
TGI [1]: > 100 µM
TGI [2]: > 100 µM
TGI [3]: > 100 µM
TGI [4]: > 100 µM
TGI [5]: > 100 µM
TGI [6]: > 100 µM
TGI [7]: > 100 µM
TGI [8]: > 100 µM
TGI [9]: > 100 µM
TGI [10]: > 100 µM

CCC(CON(C)c1ccccc1)(SC)SC
TGI [1]: > 100 µM
TGI [2]: > 100 µM
TGI [3]: > 100 µM
TGI [4]: > 100 µM
TGI [5]: > 100 µM
TGI [6]: > 100 µM
TGI [7]: > 100 µM
TGI [8]: > 100 µM
TGI [9]: > 100 µM
TGI [10]: > 100 µM
